Assay results reported in patent publication US20160279079A1, “COMPOSITIONS AND METHODS FOR TREATING BONE DISEASES” (INDIANA UNIVERSITY RESEARCH AND TECHNOLOGY CORPORATION, priority 2013, published 2016).
Read-outs that look alike come from different tables or passages of the source.

Experiments:
[1] = tested on: RAW264.7 mouse pre-osteoclast (monocyte/macrophage) cells; experiment: Cell mortality and live cell numbers (trypan blue, hemacytometer); assay type: cell-based
Experimental: METHOD EXAMPLE. Cell culture. MC3T3 E1 mouse osteoblast-like cells (clone 14—MC3T3 E1-14; and no clonal cells in supplementary figures), and RAW264.7 mouse pre-osteoclast (monocyte/macrophage) cells were cultured in αMEM containing 10% fetal bovine serum and antibiotics (50 units/ml penicillin, and 50 μg/ml streptomycin; Life Technologies, Grand Island, N.Y., USA). Cells were maintained at 37° C. and 5% CO2 in a humidified incubator. Cell mortality and live cell numbers were determined 24 h after the treatment with 20 ng/ml RANKL (PeproTech, Rocky Hills, N.C., USA) in response to 0.1-20 μM salubrinal or 1-20 μM guanabenz acetate (Tocris Bioscience, Ellisville, Mo., USA). Cells were stained with trypan blue and the numbers of live and dead cells were counted using a hemacytometer.
METHOD EXAMPLE. Inhibition of osteoclastogenesis of RAW264.7 cells by salubrinal. The primary aim of this study is to evaluate the effects of salubrinal on osteoclastogenesis. In response to 0.1-20 μM salubrinal for 24 h, cell mortality and live cell numbers of RAW264.7 pre-osteoclasts was examined. […] The number of live cells was increased by ˜50% by incubation with RANKL, and administration of 10-20 μM salubrinal reduced the numbers approximately by 10% (FIG. 3B).
METHOD EXAMPLE. Inhibitory effects of guanabenz on osteoclastogenesis of RAW264.7 cells. To further examine a potential involvement of p-eIF2α in regulation of osteoclastogenesis, we employed guanabenz that also acts as an inhibitor of de-phosphorylation of eIF2α was evaluated. […] Compared to the number of TRAP-positive multi-nucleated cells of 377 39 (RANKL only), guanabenz reduced the number of differentiated osteoclasts to 364±38 (1 μM), 288±51 (5 μM), 189±25 (10 μM), and 73±16 (20 μM).

[2] = tested on: osteoclast-associated receptor (OSCAR); experiment: Quantitative real-time PCR, OSCAR mRNA in RAW264.7 cells; assay type: cell-based, mouse
Experimental: METHOD EXAMPLE. Quantitative real-time PCR. Total RNA was extracted using an RNeasy Plus mini kit (Qiagen, Germantown, Md., USA). Reverse transcription was conducted with high capacity cDNA reverse transcription kits (Applied Biosystems, Carlsbad, Calif., USA), and quantitative real-time PCR was performed using ABI 7500 with Power SYBR green PCR master mix kits (Applied Biosystems). We evaluated mRNA levels of ATF4, Osteocalcin (OCN), NFATcl, c-Fos, tartrate-resistant acid phosphatase (TRAP), and osteoclast-associated receptor (OSCAR) with the PCR primers listed in Table 1. GAPDH was used for internal control. The relative mRNA abundance for the selected genes with respect to the level of GAPDH mRNA was expressed as a ratio of Streated/Scontrol, where Streated=mRNA level for the cells treated with chemical agents, and Scontrol=mRNA level for control cells.
METHOD EXAMPLE. Partial suppression of mRNA levels of NFATcl, c-Fos, TRAP, and OSCAR by salubrinal. […] On day 2, for instance, the RANKL-driven increase was 9.4±0.5 fold (NFATcl), 1.9±0.1 fold (c-fos), 165±4.2 fold (TRAP), and 467±22 fold (OSCAR). The reduction by 20 μM salubrinal was 46% (NFATcl), 32% (c-fos), 35% (TRAP), and 21% (OSCAR) (FIG. 5A).
METHOD EXAMPLE. Reduction of RANKL-induced NFATcl, c-Fos, TRAP, and OSCAR by guanabenz. […] The normalized level of “1” was defined as the level for the cells that were not treated with RANKL without administration of guanabenz.

NFATc1 = NFATc1 expression after RNA interference for eIF2α in RAW264.7 cells; assay type: cell-based, mouse; settings: for reduction of NFATc1: 20 μM
Experimental: (§1) METHOD EXAMPLE. Western Immunoblotting. Cells were lysed in a radioimmunoprecipitation assay (RIPA) buffer containing protease inhibitors (Santa Cruz Biotechnology, Santa Cruz, Calif., USA) and phosphatase inhibitors (Calbiochem, Billerica, Mass., USA). Isolated proteins were fractionated using 10-15% SDS gels and electro-transferred to Immobilon-P membranes (Millipore, Billerica, Mass., USA). The membrane was incubated for 1 h with primary antibodies followed by 45 min incubation with goat anti-rabbit or anti-mouse IgG conjugated with horseradish peroxidase (Cell Signaling, Danvers, Mass., USA). We used antibodies against ATF4, NFATcl (Santa Cruz), p-eIF2α (Thermo Scientific, Waltham, Mass., USA), eIF2α, caspase 3, cleaved caspase 3, p38 and p-p38 mitogen activated protein kinase (MAPK), extracellular signal-regulated kinase (ERK) and p-ERK, nuclear factor kappa B (NFκB) p65 and p-NFκB p65 (Cell Signaling), and β-actin (Sigma). Protein levels were assayed using a SuperSignal west femto maximum sensitivity substrate (Thermo Scientific), and signal intensities were quantified with a luminescent image analyzer (LAS-3000, Fuji Film, Tokyo, Japan).
METHOD EXAMPLE. Knockdown of ATF4 and eIF2α by siRNA. Cells were treated with siRNA specific to ATF4 and eIF2α (Life Technologies). Selected target sequences for knockdown of ATF4 and eIF2α were: ATF4, 5′-GCU GCU UAC AUU ACU CUA A-3′; and eIF2α, 5′-CGG UCA AAA UUC GAG CAG A-3′. As a nonspecific control, a negative siRNA (Silencer Select #1, Life Technologies) was used. Cells were transiently transfected with siRNA for ATF4, eIF2α or control in Opti-MEM I medium with Lipofectamine RNAiMAX (Life Technologies). Six hours later, the medium was replaced by regular culture medium. The efficiency of silencing was assessed with immunoblotting or quantitative PCR 48 h after transfection.
METHOD EXAMPLE. Reduction in salubrinal/guanabenz-driven suppression of NFATcl expression by RNA interference for eTF2α. To evaluate the effects of eIF2α on the expression level of NFATcl, RNA interference specific for eIF2α together with a non-specific control (NC) was used (FIG. 10). […] However, the expression of NFATcl was reduced only by 20% in the cells transfected with eIF2α siRNA.

p-eIF2α = experiment: Western immunoblotting, p-eIF2α in MC3T3 E1-14 cells; assay type: cell-based, mouse
Experimental: as §1
METHOD EXAMPLE. ATF4-mediated elevation of osteocalcin mRNA in MC3T3 E1-14 cells. Salubrinal is an inhibitor of de-phosphorylation of eIF2α. […]

[3] = cells transfected with the control siRNA

| SMILES | cell mortality [1] | OSCAR mRNA level ([2]; 20 μM guanabenz, 2 days after RANKL) | OSCAR mRNA level ([2]; 5 and 10 μM guanabenz, 2 days after RANKL) | suppressive effect on NFATc1 level (NFATc1; 20 μM guanabenz, transfection of eIF2α siRNA) | reduction of NFATc1 (NFATc1; [3]) | p-eIF2α (p-eIF2α; guanabenz) | Cell mortality ratio ([1]; 0.1-20 μM salubrinal, 24 h, presence and absence of RANKL) | reduction of the number of live cells ([1]; 10-20 μM salubrinal, 24 h, with RANKL) | cell mortality ([1]; absence of RANKL administration) | reduction of OSCAR mRNA level ([2]; 20 μM salubrinal, day 2 after RANKL) | OSCAR mRNA level ([2]; 0.1-1 μM salubrinal, with RANKL, day 2 and day 4) | reduction of NFATc1 (NFATc1; cells transfected with eIF2α siRNA) | phosphorylation of eIF2α (p-eIF2α; 5 μM salubrinal) |
| --- | --- | --- | --- | --- | --- | --- | --- | --- | --- | --- | --- | --- | --- |
| N=C(N)N/N=C/c1c(Cl)cccc1Cl [guanabenz] | did not significantly alter | reduced | effective in reducing | abolished the suppressive effect | 43% | increase in p-eIF2α and ATF4 |  |  |  |  |  |  |  |
| O=C(/C=C/c1ccccc1)NC(NC(=S)Nc1cccc2cccnc12)C(Cl)(Cl)Cl (centres unmarked) [salubrinal] |  |  |  |  | 56% |  | did not present statistically significant differences | ~10% | did not significantly alter | 21% | did not contribute to significant reduction | 20% | elevated phosphorylation of eIF2α |
